Experimental data reported in ChEMBL document CHEMBL5108015, “4,6-Disubstituted-1H-Indazole-4-Amine derivatives with immune-chemotherapy effect and in vivo antitumor activity” (Eur J Med Chem, 2022).
The source made the active and inactive calls. The rule behind the calls is not given here.

Legend:
[1] = target: T1, Indoleamine 2,3-dioxygenase 1 (Homo sapiens, UniProt P14902); assay: Inhibition of human IDO1
Target sequence in this assay (P14902 whole entry): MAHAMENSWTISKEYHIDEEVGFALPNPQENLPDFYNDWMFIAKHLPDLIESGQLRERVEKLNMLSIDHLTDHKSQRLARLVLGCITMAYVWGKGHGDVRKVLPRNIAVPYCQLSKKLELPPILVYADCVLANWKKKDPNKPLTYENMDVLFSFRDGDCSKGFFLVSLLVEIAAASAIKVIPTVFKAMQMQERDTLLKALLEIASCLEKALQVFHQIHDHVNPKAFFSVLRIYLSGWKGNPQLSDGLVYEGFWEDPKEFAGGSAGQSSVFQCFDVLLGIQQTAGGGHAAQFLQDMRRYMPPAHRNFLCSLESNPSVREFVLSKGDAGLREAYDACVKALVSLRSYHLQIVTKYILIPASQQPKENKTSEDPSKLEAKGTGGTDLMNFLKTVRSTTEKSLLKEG

[2] = target: T2, Tryptophan 2,3-dioxygenase (Homo sapiens, UniProt P48775); assay: Inhibition of human TDO
Target sequence in this assay (P48775 whole entry, the tested form may be a part): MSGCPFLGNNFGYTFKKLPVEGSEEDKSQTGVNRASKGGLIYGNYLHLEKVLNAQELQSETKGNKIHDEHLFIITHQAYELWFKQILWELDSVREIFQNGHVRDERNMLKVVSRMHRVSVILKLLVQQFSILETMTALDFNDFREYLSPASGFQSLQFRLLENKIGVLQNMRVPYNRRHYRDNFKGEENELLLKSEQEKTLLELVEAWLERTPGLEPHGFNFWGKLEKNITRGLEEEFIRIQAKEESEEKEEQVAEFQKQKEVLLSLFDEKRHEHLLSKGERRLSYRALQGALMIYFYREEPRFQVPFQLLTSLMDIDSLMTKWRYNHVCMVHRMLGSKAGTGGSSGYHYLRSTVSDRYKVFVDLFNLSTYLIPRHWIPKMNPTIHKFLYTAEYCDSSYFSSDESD

[3] = target: T1, Indoleamine 2,3-dioxygenase 1; assay: (§1) Inhibition of N-terminal hexa-histidine tagged human IDO1 (12 to 403 residues) expressed in Escherichia coli Transetta (DE3) using L-tryptophan as substrate at 10 uM preincubated with enzyme for 10 mins followed by substrate addition and measured after 30 to 60 mins by microplate reader analysis relative to control; settings: time 40-70 min
Target sequence in this assay (P14902 whole entry, looked up): as the sequence (P14902 whole entry) above

Jurkat = assay: Cytotoxicity against human Jurkat cells assessed as inhibition of cell growth incubated for 24 hrs by MTT assay; assay type: functional, cell-based
[4] = target: T2, Tryptophan 2,3-dioxygenase; assay: as §1, with “human TDO (19” for “human IDO1 (12”, “to 388” for “to 403”, “at 100” for “at 10”; settings: time 40-70 min
Target sequence in this assay (P48775 whole entry, looked up, the tested form may be a part): as the sequence (P48775 whole entry, the tested form may be a part) above

[5] = target: T2, Tryptophan 2,3-dioxygenase; assay: (§2) Inhibition of N-terminal hexa-histidine tagged human TDO (19 to 388 residues) expressed in Escherichia coli Transetta (DE3) using L-tryptophan as substrate preincubated with enzyme for 10 mins followed by substrate addition and measured after 30 to 60 mins by microplate reader analysis
Target sequence in this assay (P48775 whole entry, the tested form may be a part): as above

B16 = assay: Cytotoxicity against mouse B16 cells assessed as inhibition of cell growth incubated for 24 hrs by MTT assay; assay type: functional, cell-based; settings: B16, 24 h
HepG2 = assay: Cytotoxicity against human HepG2 cells assessed as inhibition of cell growth incubated for 24 hrs by MTT assay; assay type: functional, cell-based; settings: HepG2, 24 h
H22 = assay: Cytotoxicity against mouse H22 cells assessed as inhibition of cell growth incubated for 24 hrs by MTT assay; assay type: functional, cell-based; settings: H22, 24 h
CT26 [6] = assay: Antitumor activity against mouse CT26 cells implanted in BALB/c mouse assessed as reduction in tumor weight at 50 mg/kg, IG administered every one day for 9 days and measured every 3 days by vernier caliper analysis; assay type: functional, organism-based; settings: time 9.0 day
CT26 [7] = assay: Antitumor activity against mouse CT26 cells implanted in BALB/c mouse assessed as inhibition of tumor volume at 50 mg/kg, IG administered every one day for 9 days and measured every 3 days by vernier caliper analysis relative to control; assay type: functional; settings: CT26, po, 216 h, time 9 day
[8] = target: T2, Tryptophan 2,3-dioxygenase; assay: as §2, with “as substrate at 10 uM preincubated with” for “as substrate preincubated with”, “reader analysis relative to control” for “reader analysis”; settings: time 40-70 min
Target sequence in this assay (P48775 whole entry, looked up, the tested form may be a part): as the sequence (P48775 whole entry, the tested form may be a part) above

[9] = target: T1, Indoleamine 2,3-dioxygenase 1; assay: as §1, with “at 100” for “at 10”; settings: time 40-70 min
Target sequence in this assay (P14902 whole entry, looked up): as the sequence (P14902 whole entry) above

[10] = target: T1, Indoleamine 2,3-dioxygenase 1; assay: Inhibition of N-terminal hexa-histidine tagged human IDO1 (12 to 403 residues) expressed in Escherichia coli Transetta (DE3) using L-tryptophan as substrate preincubated with enzyme for 10 mins followed by substrate addition and measured after 30 to 60 mins by microplate reader analysis
Target sequence in this assay (P14902 whole entry): as above

CT26 [11] = assay: Antitumor activity against mouse CT26 cells implanted in BALB/c mouse assessed as reduction in tumor volume at 50 mg/kg, IG administered every one day for 9 days and measured every 3 days by vernier caliper analysis relative to control; assay type: functional, organism-based; settings: time 9.0 day
[12] = Cytotoxicity against […] cells assessed as inhibition of cell growth incubated for 24 hrs by MTT assay; assay type: functional, cell-based; settings: Mus musculus, Hepa1-6, 24 h
MOLM-13 = assay: Cytotoxicity against human MOLM-13 cells assessed as inhibition of cell growth incubated for 24 hrs by MTT assay; assay type: functional, cell-based; settings: MOLM-13, 24 h
[13] = Toxicity in BALB/c mouse implanted with mouse CT26 cells assessed as reduction in body weight at 50 mg/kg, IG administered every one day for 9 days and measured every 3 days; assay type: organism-based; settings: in vivo, po, 216 h, time 9 day
[14] = target: Serine/threonine-protein kinase pim-1 (Homo sapiens) (UniProt P11309); assay: Inhibition of human PIM-1 at 2 uM by DiscoveryX Kinomescan assay relative to control
[15] = target: Serine/threonine-protein kinase pim-2 (Homo sapiens) (UniProt Q9P1W9); assay: Inhibition of human PIM-2 at 2 uM by DiscoveryX Kinomescan assay relative to control
Sequence of Serine/threonine-protein kinase pim-2 (Homo sapiens) (Q9P1W9 whole entry, looked up): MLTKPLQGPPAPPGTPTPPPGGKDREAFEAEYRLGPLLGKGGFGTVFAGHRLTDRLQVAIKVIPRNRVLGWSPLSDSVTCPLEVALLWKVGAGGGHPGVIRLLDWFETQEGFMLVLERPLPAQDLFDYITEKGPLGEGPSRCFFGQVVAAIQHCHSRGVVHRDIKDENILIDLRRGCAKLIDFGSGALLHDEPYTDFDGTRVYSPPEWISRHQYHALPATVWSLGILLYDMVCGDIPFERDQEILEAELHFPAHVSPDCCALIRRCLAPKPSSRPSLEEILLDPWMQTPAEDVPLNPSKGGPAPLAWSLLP

[16] = target: Tyrosine-protein kinase Yes (Homo sapiens) (UniProt P07947); assay: Inhibition of human YES at 2 uM by DiscoveryX Kinomescan assay relative to control
[17] = target: Platelet-derived growth factor receptor alpha (Homo sapiens) (UniProt P16234); assay: Inhibition of human PDGFRalpha at 2 uM by DiscoveryX Kinomescan assay relative to control
Sequence of Platelet-derived growth factor receptor alpha (Homo sapiens) (P16234 whole entry): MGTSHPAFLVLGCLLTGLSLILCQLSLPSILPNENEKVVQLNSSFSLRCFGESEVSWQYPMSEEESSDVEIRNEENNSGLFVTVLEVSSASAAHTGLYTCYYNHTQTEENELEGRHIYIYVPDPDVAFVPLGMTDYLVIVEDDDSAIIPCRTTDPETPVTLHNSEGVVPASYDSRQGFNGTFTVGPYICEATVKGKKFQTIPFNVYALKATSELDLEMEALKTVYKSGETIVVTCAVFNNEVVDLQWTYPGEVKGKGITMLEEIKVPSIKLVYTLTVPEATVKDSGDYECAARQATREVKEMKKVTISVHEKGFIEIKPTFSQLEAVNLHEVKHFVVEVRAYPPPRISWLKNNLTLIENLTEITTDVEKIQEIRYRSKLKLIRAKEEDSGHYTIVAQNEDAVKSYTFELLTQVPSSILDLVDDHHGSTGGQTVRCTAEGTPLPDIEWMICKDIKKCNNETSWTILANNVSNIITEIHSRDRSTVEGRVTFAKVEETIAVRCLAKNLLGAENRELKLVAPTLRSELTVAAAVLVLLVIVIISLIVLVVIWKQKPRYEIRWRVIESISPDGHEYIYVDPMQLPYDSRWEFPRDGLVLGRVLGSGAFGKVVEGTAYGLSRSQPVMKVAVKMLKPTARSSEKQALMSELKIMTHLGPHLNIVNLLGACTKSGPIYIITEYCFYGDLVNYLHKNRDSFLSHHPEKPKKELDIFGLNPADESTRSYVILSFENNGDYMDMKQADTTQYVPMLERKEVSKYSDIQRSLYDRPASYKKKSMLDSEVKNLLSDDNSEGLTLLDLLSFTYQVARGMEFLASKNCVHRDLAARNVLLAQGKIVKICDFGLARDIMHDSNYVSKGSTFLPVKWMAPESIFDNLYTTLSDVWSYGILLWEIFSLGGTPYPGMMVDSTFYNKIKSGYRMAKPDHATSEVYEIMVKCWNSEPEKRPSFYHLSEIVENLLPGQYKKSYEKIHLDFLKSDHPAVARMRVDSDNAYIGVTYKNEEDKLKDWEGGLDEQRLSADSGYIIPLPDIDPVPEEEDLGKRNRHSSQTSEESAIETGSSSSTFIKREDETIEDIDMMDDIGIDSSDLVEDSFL

[18] = target: RAF proto-oncogene serine/threonine-protein kinase (Homo sapiens) (UniProt P04049); assay: Inhibition of human c-Raf at 2 uM by DiscoveryX Kinomescan assay relative to control
[19] = target: Tyrosine-protein kinase JAK3 (Homo sapiens) (UniProt P52333); assay: Inhibition of human JAK3 at 2 uM by DiscoveryX Kinomescan assay relative to control
Sequence of Tyrosine-protein kinase JAK3 (Homo sapiens) (P52333 whole entry): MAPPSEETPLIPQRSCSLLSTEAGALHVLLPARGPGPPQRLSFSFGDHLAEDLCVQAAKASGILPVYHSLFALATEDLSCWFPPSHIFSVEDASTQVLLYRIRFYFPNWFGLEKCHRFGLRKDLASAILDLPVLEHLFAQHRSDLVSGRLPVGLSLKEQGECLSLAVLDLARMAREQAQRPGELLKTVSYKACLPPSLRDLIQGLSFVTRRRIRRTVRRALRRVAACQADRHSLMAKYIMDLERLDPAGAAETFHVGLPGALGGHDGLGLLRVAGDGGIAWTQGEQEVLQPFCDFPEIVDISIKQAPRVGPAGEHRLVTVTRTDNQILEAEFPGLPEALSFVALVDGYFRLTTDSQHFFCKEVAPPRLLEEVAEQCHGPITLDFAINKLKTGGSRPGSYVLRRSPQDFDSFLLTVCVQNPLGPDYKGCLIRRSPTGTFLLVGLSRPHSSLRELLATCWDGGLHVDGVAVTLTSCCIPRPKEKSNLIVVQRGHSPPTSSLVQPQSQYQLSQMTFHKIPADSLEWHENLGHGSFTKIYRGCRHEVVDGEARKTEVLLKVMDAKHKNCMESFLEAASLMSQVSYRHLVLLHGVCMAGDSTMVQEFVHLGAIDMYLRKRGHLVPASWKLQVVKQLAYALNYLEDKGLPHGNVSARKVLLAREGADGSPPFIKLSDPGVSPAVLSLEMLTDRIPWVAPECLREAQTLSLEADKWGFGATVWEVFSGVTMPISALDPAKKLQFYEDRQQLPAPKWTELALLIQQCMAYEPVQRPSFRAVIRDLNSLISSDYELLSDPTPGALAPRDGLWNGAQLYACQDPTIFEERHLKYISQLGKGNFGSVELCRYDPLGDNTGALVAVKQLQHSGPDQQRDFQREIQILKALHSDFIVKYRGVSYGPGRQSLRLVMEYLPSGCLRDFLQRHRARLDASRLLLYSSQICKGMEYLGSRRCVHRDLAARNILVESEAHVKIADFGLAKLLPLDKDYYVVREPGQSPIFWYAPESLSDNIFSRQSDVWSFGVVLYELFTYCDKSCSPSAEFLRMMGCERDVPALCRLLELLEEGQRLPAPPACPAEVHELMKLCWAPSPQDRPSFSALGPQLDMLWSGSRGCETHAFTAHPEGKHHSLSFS

[20] = target: Tyrosine-protein kinase BTK (Homo sapiens) (UniProt Q06187); assay: Inhibition of human BTK at 2 uM by DiscoveryX Kinomescan assay relative to control
[21] = target: DNA-dependent protein kinase catalytic subunit (Homo sapiens) (UniProt P78527); assay: Inhibition of human DNA-PK at 2 uM by DiscoveryX Kinomescan assay relative to control
[22] = target: Vascular endothelial growth factor receptor 2 (Homo sapiens) (UniProt P35968); assay: Inhibition of human KDR at 2 uM by DiscoveryX Kinomescan assay relative to control
[23] = target: Tyrosine-protein kinase Lyn (Homo sapiens) (UniProt P07948); assay: Inhibition of human LYN at 2 uM by DiscoveryX Kinomescan assay relative to control
[24] = target: Tyrosine-protein kinase JAK1 (Homo sapiens) (UniProt P23458); assay: Inhibition of human JAK1 at 2 uM by DiscoveryX Kinomescan assay relative to control
Sequence of Tyrosine-protein kinase JAK1 (Homo sapiens) (P23458 whole entry): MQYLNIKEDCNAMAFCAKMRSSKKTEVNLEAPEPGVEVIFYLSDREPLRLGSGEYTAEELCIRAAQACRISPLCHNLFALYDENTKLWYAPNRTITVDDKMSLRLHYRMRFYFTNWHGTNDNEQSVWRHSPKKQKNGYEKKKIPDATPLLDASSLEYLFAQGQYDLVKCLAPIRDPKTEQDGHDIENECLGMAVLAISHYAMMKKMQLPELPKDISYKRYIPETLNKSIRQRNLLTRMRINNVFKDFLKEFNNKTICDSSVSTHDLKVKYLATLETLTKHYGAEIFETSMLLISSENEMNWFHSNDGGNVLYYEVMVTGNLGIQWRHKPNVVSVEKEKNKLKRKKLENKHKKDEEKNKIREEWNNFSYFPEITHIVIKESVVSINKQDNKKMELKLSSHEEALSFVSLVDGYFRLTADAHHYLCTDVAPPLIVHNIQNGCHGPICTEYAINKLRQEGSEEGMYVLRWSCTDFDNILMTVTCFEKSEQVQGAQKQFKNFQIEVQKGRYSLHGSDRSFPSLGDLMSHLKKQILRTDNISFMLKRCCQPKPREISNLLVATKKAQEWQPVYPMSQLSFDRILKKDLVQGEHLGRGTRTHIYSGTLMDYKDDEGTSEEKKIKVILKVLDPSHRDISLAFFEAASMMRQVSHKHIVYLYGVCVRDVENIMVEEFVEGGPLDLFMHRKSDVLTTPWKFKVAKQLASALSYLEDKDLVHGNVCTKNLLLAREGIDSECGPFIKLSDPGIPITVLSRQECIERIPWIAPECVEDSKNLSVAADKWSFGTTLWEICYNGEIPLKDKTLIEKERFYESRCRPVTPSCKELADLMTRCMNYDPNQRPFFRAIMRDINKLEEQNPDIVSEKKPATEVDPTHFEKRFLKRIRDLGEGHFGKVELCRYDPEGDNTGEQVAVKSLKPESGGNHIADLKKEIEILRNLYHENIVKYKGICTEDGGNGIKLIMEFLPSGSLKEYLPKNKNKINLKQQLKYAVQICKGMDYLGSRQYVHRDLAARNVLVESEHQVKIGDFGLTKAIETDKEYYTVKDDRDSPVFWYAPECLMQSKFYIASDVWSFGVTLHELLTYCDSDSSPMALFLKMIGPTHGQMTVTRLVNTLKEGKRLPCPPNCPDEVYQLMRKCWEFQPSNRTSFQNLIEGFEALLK

[25] = target: Serine/threonine-protein kinase B-raf (Homo sapiens) (UniProt P15056); assay: Inhibition of human B-Raf at 2 uM by DiscoveryX Kinomescan assay relative to control
[26] = target: Receptor-type tyrosine-protein kinase FLT3 (Homo sapiens) (UniProt P36888); assay: Inhibition of human FLT3 at 2 uM by DiscoveryX Kinomescan assay relative to control
[27] = target: Tyrosine-protein kinase JAK2 (Homo sapiens) (UniProt O60674); assay: Inhibition of human JAK2 at 2 uM by DiscoveryX Kinomescan assay relative to control
[28] = system: Receptor-type tyrosine-protein kinase FLT3 (Homo sapiens), P36888 [D835Y]; assay: Inhibition of human FLT3 D835Y mutant at 2 uM by DiscoveryX Kinomescan assay relative to control
[29] = target: Mast/stem cell growth factor receptor Kit (Homo sapiens) (UniProt P10721); assay: Inhibition of human c-KIT at 2 uM by DiscoveryX Kinomescan assay relative to control
[30] = target: Tyrosine-protein kinase receptor UFO (Homo sapiens) (UniProt P30530); assay: Inhibition of human AXL at 2 uM by DiscoveryX Kinomescan assay relative to control
CT26 [31] = assay: Upregulation of CD8 expression in tumor of BALB/c mouse implanted with mouse CT26 cells at 12.5 to 50 mg/kg, IG administered every one day for 9 days by Hematoxylin staining based immunohistochemistry analysis; assay type: functional, organism-based; settings: dose 12.5-50 mg/kg, time 9.0 day
CT26 [32] = assay: Downregulation of TNF-alpha expression in tumor of BALB/c mouse implanted with mouse CT26 cells at 12.5 to 50 mg/kg, IG administered every one day for 9 days by Hematoxylin staining based immunohistochemistry analysis; assay type: functional, organism-based; settings: dose 12.5-50 mg/kg, time 9.0 day
CT26 [33] = assay: Antitumor activity against mouse CT26 cells implanted in BALB/c mouse assessed as inhibition of tumor volume at 25 mg/kg, IG administered every one day for 9 days and measured every 3 days by vernier caliper analysis relative to control; assay type: functional; settings: CT26, po, 216 h, time 9 day
[34] = Toxicity in BALB/c mouse implanted with mouse CT26 cells assessed as reduction in body weight at 12.5 to 50 mg/kg, IG administered every one day for 9 days and measured every 3 days; assay type: organism-based; settings: in vivo, po, 216 h, dose 12.5-50 mg/kg, time 9 day
HEK293 = assay: Cytotoxicity against HEK293 cells assessed as inhibition of cell growth at <10 uM incubated for 24 hrs by MTT assay; assay type: toxicity, cell-based; settings: human, hek293, 24 h
[35] = target: T2, Tryptophan 2,3-dioxygenase; assay: Inhibition of TDO in HEK293-A cells transfected with pCMV-TDO2; assay type: cell-based
Target sequence in this assay (P48775 whole entry, the tested form may be a part): as the sequence (P48775 whole entry, the tested form may be a part) above

CT26 [36] = assay: Downregulation of Foxp3 expression in tumor of BALB/c mouse implanted with mouse CT26 cells at 12.5 to 50 mg/kg, IG administered every one day for 9 days by Hematoxylin staining based immunohistochemistry analysis; assay type: functional, organism-based; settings: dose 12.5-50 mg/kg, time 9.0 day
CT26 [37] = assay: Antitumor activity against mouse CT26 cells implanted in BALB/c mouse assessed as reduction in tumor volume at 12.5 to 50 mg/kg, IG administered every one day for 9 days and measured every 3 days by vernier caliper analysis; assay type: functional, organism-based; settings: dose 12.5-50 mg/kg, time 9.0 day
CT26 [38] = assay: Antitumor activity against mouse CT26 cells implanted in BALB/c mouse assessed as reduction in tumor weight at 12.5 to 50 mg/kg, IG administered every one day for 9 days and measured every 3 days by vernier caliper analysis; assay type: functional, organism-based; settings: dose 12.5-50 mg/kg, time 9.0 day
CT26 [39] = assay: Antitumor activity against mouse CT26 cells implanted in BALB/c mouse assessed as inhibition of tumor volume at 30 mg/kg, IG administered every one day for 9 days and measured every 3 days by vernier caliper analysis relative to control; assay type: functional; settings: CT26, po, 216 h, time 9 day

SMILES | inhibition [3] | IC50 (Jurkat) | inhibition [4] | IC50 [5] | IC50 (B16) | IC50 (HepG2) | IC50 (H22) | inhibition [8] | inhibition [9] | IC50 [10] | IC50 [12] | IC50 (MOLM-13) | further results
NC(=O)Nc1ccc(-c2c[nH]c3cc(F)ccc23)cc1 |  |  |  |  |  |  |  |  |  |  |  |  | IC50 [1]: 0.049 µM; IC50 [2]: 0.078 µM
O[C@@H]1c2ccnn2CC[C@H]1[C@H]1c2ccccc2-c2cncn21 |  |  |  |  |  |  |  |  |  |  |  |  | IC50 [1]: 4.5 µM; IC50 [2]: 0.13 µM
O=[N+]([O-])c1ccc(O)cc1CNc1cc(Br)cc2[nH]ncc12 | 92% | > 20 µM | 99% | 0.46 µM | > 20 µM | > 20 µM | > 20 µM | 96% | 98% | 0.91 µM | > 20 µM | > 20 µM | Activity (CT26 [6]): Active; inhibition in vivo at 50 mg/kg (CT26 [7]): 60.5%; Activity (CT26 [11]): Active; Activity [13]: Non-Toxic
O=[N+]([O-])c1ccccc1CNc1cc(C(F)(F)F)cc2[nH]ncc12 | 35% | > 20 µM | 95% | 2.55 µM | > 20 µM | 7.76 µM | 9.01 µM | 89% | 76% | 13.9 µM | 7.58 µM | 2.35 µM | inhibition [14]: 78%; inhibition [15]: 4%; inhibition [16]: 33%; inhibition [17]: 23%; inhibition [18]: 31%; inhibition [19]: 78%; inhibition [20]: 12%; inhibition [21]: 0%; inhibition [22]: 100%; inhibition [23]: 50%; inhibition [24]: 66%; inhibition [25]: 27%; inhibition [26]: 93%; inhibition [27]: 35%; inhibition [28]: 96%; inhibition [29]: 61%; inhibition [30]: 33%
Cc1ccc(CNc2cc(C(F)(F)F)cc3[nH]ncc23)c([N+](=O)O)c1 | 36% | 7.25 µM | 92% | 0.62 µM | 37.4 µM | 0.54 µM | 1.34 µM | 90% | 62% | > 100 µM | 5.08 µM | 3.43 µM | Activity (CT26 [31]): Active; Activity (CT26 [32]): Active; inhibition in vivo at 25 mg/kg (CT26 [33]): 76.9%; Activity [34]: Non-Toxic; Activity (HEK293): Non-Toxic; IC50 [35]: 0.06 µM; Activity (CT26 [36]): Active; Activity (CT26 [37]): Active; Activity (CT26 [38]): Active
O=[N+]([O-])c1ccc(Cl)cc1CNc1cc(C(F)(F)F)cc2[nH]ncc12 | 35% | 1.1 µM | 88% | 3.19 µM | 11.6 µM | 1.3 µM | 0.49 µM | 84% | 65% | 37.7 µM | 0.94 µM | 1.05 µM | Activity (HEK293): Non-Toxic
CC(C(=O)c1ccc(O)cc1)C1(O)C(=O)Nc2c(Cl)cc(Cl)cc21 (stereo unspecified) |  |  |  |  |  |  |  |  |  |  |  |  | Ki [1]: > 1 µM; Ki [2]: > 1 µM
NS(=O)(=O)NCCNc1nonc1/C(=N/O)Nc1ccc(F)c(Br)c1 [EPACADOSTAT] |  |  |  |  |  |  |  |  |  |  |  |  | inhibition in vivo at 30 mg/kg (CT26 [39]): 57.5%
